{"source": "patent US11969428B2", "about": "“Methods and pharmaceutical compositions for treating lymphoid malignancy” (priority 2011, dated 2024)", "test_in_all_cases": "Ambit KinomeScan screening", "assay_type_in_all_cases": "binding", "conditions_in_all_cases": "CAL-130 10 μM", "key": {"BRAF(V600E)": {"molecular_target": "T1, BRAF(V600E) (Homo sapiens, UniProt P15056, V600E)", "T1 construct": "unspecified tag (\"tagged kinases\"); purchased Ambit (KinomeScan screening)", "T1 sequence (P15056 whole entry V600E)": "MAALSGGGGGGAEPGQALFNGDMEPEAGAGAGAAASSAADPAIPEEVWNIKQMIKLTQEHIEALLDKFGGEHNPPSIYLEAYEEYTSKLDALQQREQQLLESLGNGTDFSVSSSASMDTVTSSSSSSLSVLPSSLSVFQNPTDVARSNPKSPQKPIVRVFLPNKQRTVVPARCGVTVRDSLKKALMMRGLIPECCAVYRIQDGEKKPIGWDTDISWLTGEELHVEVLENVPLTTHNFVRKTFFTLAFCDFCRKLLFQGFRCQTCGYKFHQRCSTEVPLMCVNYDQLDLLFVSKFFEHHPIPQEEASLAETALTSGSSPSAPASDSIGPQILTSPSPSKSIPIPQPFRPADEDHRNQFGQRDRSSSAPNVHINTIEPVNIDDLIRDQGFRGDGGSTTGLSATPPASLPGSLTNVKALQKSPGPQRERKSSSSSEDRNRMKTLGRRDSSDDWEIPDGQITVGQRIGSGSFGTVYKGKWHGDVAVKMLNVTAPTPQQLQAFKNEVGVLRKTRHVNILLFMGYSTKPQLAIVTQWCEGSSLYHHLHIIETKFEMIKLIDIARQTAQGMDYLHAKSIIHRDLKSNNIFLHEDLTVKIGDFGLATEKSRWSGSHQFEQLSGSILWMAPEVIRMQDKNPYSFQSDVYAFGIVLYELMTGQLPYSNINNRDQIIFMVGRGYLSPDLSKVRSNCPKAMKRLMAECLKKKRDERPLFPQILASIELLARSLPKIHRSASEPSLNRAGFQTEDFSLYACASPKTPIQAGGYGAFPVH", "procedure,_shortened": "(§1)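 One fixed dose of CAL-130, 10 μM, was screened against 353 tagged kinases for inhibition of their capture on immobilized bait. Data appear as percent of control, and results exceeding 35% were not regarded as hits.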"}, "MST1": {"molecular_target": "T2, MST1 (Homo sapiens, UniProt Q13043)", "T2 construct": "unspecified tag ('tagged kinases'); purchased Ambit (KinomeScan screening)", "procedure,_shortened": "as §1"}, "MST4": {"molecular_target": "T3, MST4 (Homo sapiens, UniProt Q9P289)", "T3 construct": "unspecified tag; purchased Ambit (KinomeScan screening panel)", "procedure,_shortened": "as §1"}, "DYRK2": {"molecular_target": "T4, DYRK2 (Homo sapiens, UniProt Q92630)", "T4 construct": "unspecified tag; purchased Ambit (KinomeScan screening service)", "procedure,_shortened": "as §1"}, "ERBB4": {"molecular_target": "T5, ERBB4 (Homo sapiens, UniProt Q15303)", "T5 construct": "unspecified tag (\"tagged kinases\"); purchased Ambit (KinomeScan screening service)", "T5 sequence (Q15303 26-1308)": "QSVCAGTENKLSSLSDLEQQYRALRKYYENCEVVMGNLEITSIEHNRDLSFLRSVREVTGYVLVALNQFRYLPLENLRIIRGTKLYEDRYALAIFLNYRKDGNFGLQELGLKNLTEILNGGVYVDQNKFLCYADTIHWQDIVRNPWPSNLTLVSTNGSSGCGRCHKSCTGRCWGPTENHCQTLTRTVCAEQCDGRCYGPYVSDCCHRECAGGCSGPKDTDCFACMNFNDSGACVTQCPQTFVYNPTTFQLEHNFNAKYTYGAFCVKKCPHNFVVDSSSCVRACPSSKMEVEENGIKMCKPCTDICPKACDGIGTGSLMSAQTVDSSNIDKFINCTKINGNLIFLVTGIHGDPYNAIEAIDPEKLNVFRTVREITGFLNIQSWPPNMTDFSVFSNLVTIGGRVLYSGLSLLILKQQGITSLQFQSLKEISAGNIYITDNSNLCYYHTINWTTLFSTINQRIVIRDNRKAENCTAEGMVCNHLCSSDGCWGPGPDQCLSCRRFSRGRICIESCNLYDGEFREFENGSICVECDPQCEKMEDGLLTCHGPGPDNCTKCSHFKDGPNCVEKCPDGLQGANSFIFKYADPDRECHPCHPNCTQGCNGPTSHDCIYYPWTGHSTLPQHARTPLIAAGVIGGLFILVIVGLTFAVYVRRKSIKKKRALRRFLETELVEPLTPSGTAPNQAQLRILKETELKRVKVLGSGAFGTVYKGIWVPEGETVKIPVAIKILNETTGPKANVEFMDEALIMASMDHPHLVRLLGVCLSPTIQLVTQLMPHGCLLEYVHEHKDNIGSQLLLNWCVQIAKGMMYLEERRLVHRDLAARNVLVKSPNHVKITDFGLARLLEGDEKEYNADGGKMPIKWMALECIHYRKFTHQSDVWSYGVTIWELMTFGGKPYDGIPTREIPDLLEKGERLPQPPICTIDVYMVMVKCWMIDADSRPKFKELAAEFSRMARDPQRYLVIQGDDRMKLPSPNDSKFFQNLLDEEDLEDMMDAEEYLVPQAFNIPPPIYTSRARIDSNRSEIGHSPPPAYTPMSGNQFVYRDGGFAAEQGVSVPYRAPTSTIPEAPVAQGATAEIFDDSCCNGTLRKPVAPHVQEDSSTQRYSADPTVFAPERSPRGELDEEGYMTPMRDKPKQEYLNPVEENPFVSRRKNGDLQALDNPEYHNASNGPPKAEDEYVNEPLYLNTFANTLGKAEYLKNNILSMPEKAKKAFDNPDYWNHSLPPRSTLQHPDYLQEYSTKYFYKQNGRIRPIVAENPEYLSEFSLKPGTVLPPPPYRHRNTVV", "procedure,_shortened": "as §1"}, "ERK4": {"molecular_target": "T6, ERK4 (Homo sapiens, UniProt P31152)", "T6 construct": "unspecified tag (\"tagged kinases\"); purchased Ambit (KinomeScan screening service)", "procedure,_shortened": "as §1"}, "ACVR2A": {"molecular_target": "T7, ACVR2A (Homo sapiens, UniProt P27037)", "T7 construct": "purchased Ambit (KinomeScan screening)", "T7 sequence (P27037 20-513)": "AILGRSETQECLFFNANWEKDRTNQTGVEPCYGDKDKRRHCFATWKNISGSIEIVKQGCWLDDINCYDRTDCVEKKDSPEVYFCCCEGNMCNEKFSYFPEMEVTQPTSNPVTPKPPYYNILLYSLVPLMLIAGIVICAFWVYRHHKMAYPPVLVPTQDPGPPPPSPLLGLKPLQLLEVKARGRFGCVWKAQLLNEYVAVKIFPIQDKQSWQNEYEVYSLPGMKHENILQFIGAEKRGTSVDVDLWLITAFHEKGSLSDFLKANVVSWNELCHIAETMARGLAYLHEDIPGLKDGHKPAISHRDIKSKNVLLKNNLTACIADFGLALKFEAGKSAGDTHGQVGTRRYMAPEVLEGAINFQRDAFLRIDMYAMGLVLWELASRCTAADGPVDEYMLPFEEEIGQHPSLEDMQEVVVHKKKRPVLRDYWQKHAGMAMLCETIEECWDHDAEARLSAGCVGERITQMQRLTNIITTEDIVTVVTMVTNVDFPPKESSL", "procedure,_shortened": "as §1"}, "ABL1(M351T)": {"molecular_target": "T8, ABL1(M351T) (Homo sapiens, UniProt P00519, M351T)", "T8 construct": "unspecified tag (\"tagged kinases\"); purchased Ambit (KinomeScan screening)", "procedure,_shortened": "as §1"}, "RIOK2": {"molecular_target": "T9, RIOK2 (Homo sapiens, UniProt Q9BVS4)", "T9 construct": "unspecified tag (tagged kinase); purchased Ambit (KinomeScan screening)", "procedure,_shortened": "as §1"}, "PIK4CB": {"molecular_target": "T10, PIK4CB (Homo sapiens, UniProt Q9UBF8)", "T10 construct": "unspecified tag; purchased Ambit (KinomeScan screening panel)", "procedure,_shortened": "as §1"}, "NEK6": {"molecular_target": "T11, NEK6 (Homo sapiens, UniProt Q9HC98)", "T11 construct": "unspecified tag; purchased Ambit (KinomeScan screening panel)", "procedure,_shortened": "as §1"}, "FGR": {"molecular_target": "T12, FGR (Homo sapiens, UniProt P09769)", "T12 construct": "unspecified tag; purchased Ambit (KinomeScan screening service)", "procedure,_shortened": "as §1"}, "AURKA": {"molecular_target": "T13, AURKA (Homo sapiens, UniProt O14965)", "T13 construct": "purchased Ambit (KinomeScan screening service)", "procedure,_shortened": "as §1"}, "CAMK4": {"molecular_target": "T14, CAMK4 (Homo sapiens, UniProt Q16566)", "T14 construct": "purchased Ambit (KinomeScan screening)", "procedure,_shortened": "as §1"}, "PRKD2": {"molecular_target": "T15, PRKD2 (Homo sapiens, UniProt Q9BZL6)", "T15 construct": "purchased Ambit (KinomeScan screening service)", "procedure,_shortened": "as §1"}, "RPS6KA4": {"molecular_target": "T16, RPS6KA4 (Homo sapiens, UniProt O75676)", "T16 construct": "tag, kind not specified; purchased Ambit (KinomeScan screening service)", "procedure,_shortened": "as §1"}, "PIK3CD": {"molecular_target": "T17, PIK3CD (Homo sapiens, UniProt O00329)", "T17 construct": "unspecified tag; purchased Ambit (KinomeScan screening panel)", "procedure,_shortened": "as §1"}, "FAK": {"molecular_target": "T18, FAK (Homo sapiens, UniProt Q05397)", "T18 construct": "unspecified tag (\"tagged kinases\"); purchased Ambit (KinomeScan screening service)", "procedure,_shortened": "as §1"}, "KIT(V559D)": {"molecular_target": "T19, KIT(V559D) (Homo sapiens, UniProt P10721, V559D)", "T19 construct": "purchased Ambit (KinomeScan screening)", "T19 sequence (P10721 26-976 V559D)": "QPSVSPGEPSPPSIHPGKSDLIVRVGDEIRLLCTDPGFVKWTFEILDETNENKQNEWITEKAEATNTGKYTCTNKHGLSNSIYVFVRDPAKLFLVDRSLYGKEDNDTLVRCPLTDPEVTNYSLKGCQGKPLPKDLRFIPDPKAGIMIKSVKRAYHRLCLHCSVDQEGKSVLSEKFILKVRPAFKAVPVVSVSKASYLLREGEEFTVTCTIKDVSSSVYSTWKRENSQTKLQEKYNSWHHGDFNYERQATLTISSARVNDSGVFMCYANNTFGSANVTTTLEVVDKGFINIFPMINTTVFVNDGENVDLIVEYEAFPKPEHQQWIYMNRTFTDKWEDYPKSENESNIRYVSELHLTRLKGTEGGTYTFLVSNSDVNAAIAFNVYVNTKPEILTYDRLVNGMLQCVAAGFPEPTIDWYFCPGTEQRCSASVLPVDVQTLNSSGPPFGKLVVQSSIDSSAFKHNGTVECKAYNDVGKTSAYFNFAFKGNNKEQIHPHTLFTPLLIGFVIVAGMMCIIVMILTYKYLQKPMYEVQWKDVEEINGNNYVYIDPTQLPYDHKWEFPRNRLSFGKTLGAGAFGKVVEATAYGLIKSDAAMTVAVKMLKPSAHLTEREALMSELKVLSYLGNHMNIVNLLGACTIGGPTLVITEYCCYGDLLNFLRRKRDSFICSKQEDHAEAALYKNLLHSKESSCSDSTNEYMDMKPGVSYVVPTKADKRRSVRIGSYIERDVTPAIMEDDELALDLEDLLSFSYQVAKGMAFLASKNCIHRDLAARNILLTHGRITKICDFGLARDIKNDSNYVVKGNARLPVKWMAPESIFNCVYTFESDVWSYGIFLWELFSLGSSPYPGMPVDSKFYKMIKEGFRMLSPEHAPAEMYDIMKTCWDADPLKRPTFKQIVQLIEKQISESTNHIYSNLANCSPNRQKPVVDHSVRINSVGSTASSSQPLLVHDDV", "procedure,_shortened": "as §1"}, "AKT1": {"molecular_target": "T20, AKT1 (Homo sapiens, UniProt P31749)", "T20 construct": "purchased Ambit (KinomeScan screening)", "procedure,_shortened": "as §1"}, "FGFR3(G697C)": {"molecular_target": "T21, FGFR3(G697C) (Homo sapiens, UniProt P22607, G697C)", "T21 construct": "unspecified tag; purchased Ambit (KinomeScan screening service)", "procedure,_shortened": "as §1"}, "PHKG1": {"molecular_target": "T22, PHKG1 (Homo sapiens, UniProt Q16816)", "T22 construct": "unspecified tag ('tagged kinases'); purchased Ambit (KinomeScan screening)", "procedure,_shortened": "as §1"}, "PRKCD": {"molecular_target": "T23, PRKCD (Homo sapiens, UniProt Q05655)", "T23 construct": "purchased Ambit (KinomeScan screening service)", "procedure,_shortened": "as §1"}, "MAP3K1": {"molecular_target": "T24, MAP3K1 (Homo sapiens, UniProt Q13233)", "T24 construct": "Ambit (KinomeScan screening)", "procedure,_shortened": "as §1"}, "OSR1": {"molecular_target": "T25, OSR1 (Homo sapiens, UniProt O95747)", "T25 construct": "purchased Ambit (KinomeScan screening service)", "procedure,_shortened": "as §1"}, "EGFR(L747-T751DEL, SINS)": {"molecular_target": "T26, EGFR(L747-T751DEL, SINS) (Homo sapiens, UniProt P00533, DEL747-750/T751S)", "T26 construct": "unspecified tag; purchased Ambit (KinomeScan screening service)", "procedure,_shortened": "as §1"}, "NDR2": {"molecular_target": "T27, NDR2 (Homo sapiens, UniProt Q9Y2H1)", "T27 construct": "unspecified tag; purchased Ambit (KinomeScan screening panel)", "procedure,_shortened": "as §1"}, "EPHB3": {"molecular_target": "T28, EPHB3 (Homo sapiens, UniProt P54753)", "T28 construct": "purchased Ambit (KinomeScan screening service)", "T28 sequence (P54753 34-998)": "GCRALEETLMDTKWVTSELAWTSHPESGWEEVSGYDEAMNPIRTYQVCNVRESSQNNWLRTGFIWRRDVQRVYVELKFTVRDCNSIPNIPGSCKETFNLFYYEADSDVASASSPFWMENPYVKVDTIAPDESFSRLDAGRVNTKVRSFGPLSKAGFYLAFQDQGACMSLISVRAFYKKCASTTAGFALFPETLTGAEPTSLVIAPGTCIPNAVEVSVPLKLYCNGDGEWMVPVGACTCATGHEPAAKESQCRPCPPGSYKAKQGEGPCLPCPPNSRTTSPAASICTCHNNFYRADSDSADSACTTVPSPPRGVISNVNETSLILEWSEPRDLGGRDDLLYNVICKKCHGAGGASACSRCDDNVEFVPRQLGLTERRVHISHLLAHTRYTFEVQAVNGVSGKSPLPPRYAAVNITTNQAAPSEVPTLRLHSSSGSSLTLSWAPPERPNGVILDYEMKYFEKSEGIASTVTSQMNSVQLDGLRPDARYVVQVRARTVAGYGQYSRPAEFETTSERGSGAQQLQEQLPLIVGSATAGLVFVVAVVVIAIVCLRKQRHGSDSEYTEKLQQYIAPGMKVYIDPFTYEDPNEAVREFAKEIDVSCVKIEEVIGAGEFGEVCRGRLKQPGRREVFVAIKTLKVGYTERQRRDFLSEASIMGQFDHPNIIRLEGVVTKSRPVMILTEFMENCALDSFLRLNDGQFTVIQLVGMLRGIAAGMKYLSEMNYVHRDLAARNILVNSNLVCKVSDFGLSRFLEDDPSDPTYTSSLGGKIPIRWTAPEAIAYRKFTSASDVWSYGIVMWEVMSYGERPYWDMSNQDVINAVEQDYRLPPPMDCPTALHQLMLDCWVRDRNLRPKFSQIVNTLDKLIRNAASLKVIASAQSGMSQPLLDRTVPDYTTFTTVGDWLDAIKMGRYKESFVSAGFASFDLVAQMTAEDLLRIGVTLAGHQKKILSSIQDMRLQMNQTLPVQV", "procedure,_shortened": "as §1"}, "MAP3K3": {"molecular_target": "T29, MAP3K3 (Homo sapiens, UniProt Q99759)", "T29 construct": "Ambit (KinomeScan screening)", "procedure,_shortened": "as §1"}, "SRPK3": {"molecular_target": "T30, SRPK3 (Homo sapiens, UniProt Q9UPE1)", "T30 construct": "purchased Ambit (KinomeScan screening service)", "procedure,_shortened": "as §1"}, "PAK5": {"test_system": "PAK5", "procedure,_shortened": "as §1"}, "WEE1": {"molecular_target": "T31, WEE1 (Homo sapiens, UniProt P30291)", "T31 construct": "purchased Ambit (KinomeScan screening service)", "procedure,_shortened": "as §1"}, "BMPR1A": {"molecular_target": "T32, BMPR1A (Homo sapiens, UniProt P36894)", "T32 construct": "purchased Ambit (KinomeScan screening service)", "T32 sequence (P36894 24-532)": "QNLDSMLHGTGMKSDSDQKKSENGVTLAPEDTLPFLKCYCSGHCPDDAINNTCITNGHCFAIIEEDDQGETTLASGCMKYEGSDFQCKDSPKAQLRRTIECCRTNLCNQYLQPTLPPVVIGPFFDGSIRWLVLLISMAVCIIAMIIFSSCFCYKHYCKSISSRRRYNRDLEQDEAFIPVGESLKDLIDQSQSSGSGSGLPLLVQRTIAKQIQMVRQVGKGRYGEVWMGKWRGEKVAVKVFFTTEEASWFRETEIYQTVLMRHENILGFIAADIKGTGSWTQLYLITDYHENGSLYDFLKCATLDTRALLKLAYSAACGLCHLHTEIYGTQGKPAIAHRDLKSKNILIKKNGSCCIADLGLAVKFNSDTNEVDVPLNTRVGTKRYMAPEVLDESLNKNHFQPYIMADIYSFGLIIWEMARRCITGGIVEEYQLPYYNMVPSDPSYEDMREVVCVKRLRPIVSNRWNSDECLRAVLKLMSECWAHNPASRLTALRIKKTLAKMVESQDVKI", "procedure,_shortened": "as §1"}, "PRKG2": {"molecular_target": "T33, PRKG2 (Homo sapiens, UniProt Q13237)", "T33 construct": "tag (kind not specified); purchased Ambit (KinomeScan screening service)", "procedure,_shortened": "as §1"}, "CAMK2D": {"molecular_target": "T34, CAMK2D (Homo sapiens, UniProt Q13557)", "T34 construct": "purchased Ambit (KinomeScan screening)", "procedure,_shortened": "as §1"}, "JNK2": {"molecular_target": "T35, JNK2 (Homo sapiens, UniProt P45984)", "T35 construct": "purchased Ambit (KinomeScan screening)", "procedure,_shortened": "as §1"}}, "data": [{"molecule": "Cc1ccccc1-n1c(C(C)Nc2nc(N)nc3nc[nH]c23)nc2cccc(C)c2c1=O", "note": "(stereo not shown) [CAL-130]", "values": [{"measurement": "Percent of Control Binding", "setting": "BRAF(V600E)", "value": 100, "unit": "%"}, {"measurement": "Percent of Control Binding", "setting": "MST1", "value": 100, "unit": "%"}, {"measurement": "Percent of Control Binding", "setting": "MST4", "value": 100, "unit": "%"}, {"measurement": "Percent of Control Binding", "setting": "DYRK2", "value": 100, "unit": "%"}, {"measurement": "Percent of Control Binding", "setting": "ERBB4", "value": 100, "unit": "%"}, {"measurement": "Percent of Control Binding", "setting": "ERK4", "value": 100, "unit": "%"}, {"measurement": "Percent of Control Binding", "setting": "ACVR2A", "value": 100, "unit": "%"}, {"measurement": "Percent of Control Binding", "setting": "ABL1(M351T)", "value": 100, "unit": "%"}, {"measurement": "Percent of Control Binding", "setting": "RIOK2", "value": 100, "unit": "%"}, {"measurement": "Percent of Control Binding", "setting": "PIK4CB", "value": 100, "unit": "%"}, {"measurement": "Percent of Control Binding", "setting": "NEK6", "value": 100, "unit": "%"}, {"measurement": "Percent of Control Binding", "setting": "FGR", "value": 100, "unit": "%"}, {"measurement": "Percent of Control Binding", "setting": "AURKA", "value": 100, "unit": "%"}, {"measurement": "Percent of Control Binding", "setting": "CAMK4", "value": 100, "unit": "%"}, {"measurement": "Percent of Control Binding", "setting": "PRKD2", "value": 100, "unit": "%"}, {"measurement": "Percent of Control Binding", "setting": "RPS6KA4", "value": 100, "unit": "%"}, {"measurement": "Percent of Control Binding", "setting": "PIK3CD; PI3KCD (Table 2)", "value": 0.1, "unit": "%"}, {"measurement": "Percent of Control Binding", "setting": "PIK3CD; PIK3CD / PI3Kδ (Table 1)", "value": 0.2, "unit": "%"}, {"measurement": "Percent of Control Binding", "setting": "FAK", "value": 100, "unit": "%"}, {"measurement": "Percent of Control Binding", "setting": "KIT(V559D)", "value": 100, "unit": "%"}, {"measurement": "Percent of Control Binding", "setting": "AKT1", "value": 100, "unit": "%"}, {"measurement": "Percent of Control Binding", "setting": "FGFR3(G697C)", "value": 100, "unit": "%"}, {"measurement": "Percent of Control Binding", "setting": "PHKG1", "value": 100, "unit": "%"}, {"measurement": "Percent of Control Binding", "setting": "PRKCD", "value": 100, "unit": "%"}, {"measurement": "Percent of Control Binding", "setting": "MAP3K1", "value": 100, "unit": "%"}, {"measurement": "Percent of Control Binding", "setting": "OSR1", "value": 100, "unit": "%"}, {"measurement": "Percent of Control Binding", "setting": "EGFR(L747-T751DEL, SINS)", "value": 100, "unit": "%"}, {"measurement": "Percent of Control Binding", "setting": "NDR2", "value": 100, "unit": "%"}, {"measurement": "Percent of Control Binding", "setting": "EPHB3", "value": 100, "unit": "%"}, {"measurement": "Percent of Control Binding", "setting": "MAP3K3", "value": 100, "unit": "%"}, {"measurement": "Percent of Control Binding", "setting": "SRPK3", "value": 100, "unit": "%"}, {"measurement": "Percent of Control Binding", "setting": "PAK5", "value": 100, "unit": "%"}, {"measurement": "Percent of Control Binding", "setting": "WEE1", "value": 100, "unit": "%"}, {"measurement": "Percent of Control Binding", "setting": "BMPR1A", "value": 100, "unit": "%"}, {"measurement": "Percent of Control Binding", "setting": "PRKG2", "value": 100, "unit": "%"}, {"measurement": "Percent of Control Binding", "setting": "CAMK2D", "value": 100, "unit": "%"}, {"measurement": "Percent of Control Binding", "setting": "JNK2", "value": 100, "unit": "%"}]}]}
